# Experimental data: article PMC10641921, “Optimization of mTOR Inhibitors Using Property-Based Drug Design and Free–Wilson Analysis for Improved In Vivo Efficacy” (ACS Medicinal Chemistry Letters, 2023)
# Like-named read-outs stand apart in the source and are kept apart here.
# What was measured:
# [1] = system: pS6K-T389 in PC-3 cells (TORC1); experiment: Cellular pS6K-T389 assay in PC-3 cells (TORC1 activity); assay type: cell-based; details: Homo sapiens, read-out: pS6K-T389 cell IC50
# Source text: Our previously reported inhibitor 1 (Figure 1) was potent against mTOR and selective against the off-target PI3Kα.[10]−[12] The target product profile for 1 and the next-generation analogs described here was for a dual inhibitor against both TORC1 and TORC2. […] We undertook a campaign to identify analogs that had improved prospects for a lower efficacious dose while retaining the favorable selectivity and safety profile of compound 1.
# PI3Kα = PI3Kα enzyme selectivity (PI3Kα IC50 over mTOR IC50); assay type: biochemical; details: ratio of PI3Kα enzyme IC50 over mTOR enzyme IC50
# [2] = Human liver microsome intrinsic clearance; assay type: in vitro ADME
# CYP2C8 = molecular target: T1, CYP2C8 (Homo sapiens, UniProt P10632); experiment: CYP inhibition, 2C8; assay type: in vitro ADME; details: most potently inhibited CYP isoform
# T1 sequence (P10632 1-490): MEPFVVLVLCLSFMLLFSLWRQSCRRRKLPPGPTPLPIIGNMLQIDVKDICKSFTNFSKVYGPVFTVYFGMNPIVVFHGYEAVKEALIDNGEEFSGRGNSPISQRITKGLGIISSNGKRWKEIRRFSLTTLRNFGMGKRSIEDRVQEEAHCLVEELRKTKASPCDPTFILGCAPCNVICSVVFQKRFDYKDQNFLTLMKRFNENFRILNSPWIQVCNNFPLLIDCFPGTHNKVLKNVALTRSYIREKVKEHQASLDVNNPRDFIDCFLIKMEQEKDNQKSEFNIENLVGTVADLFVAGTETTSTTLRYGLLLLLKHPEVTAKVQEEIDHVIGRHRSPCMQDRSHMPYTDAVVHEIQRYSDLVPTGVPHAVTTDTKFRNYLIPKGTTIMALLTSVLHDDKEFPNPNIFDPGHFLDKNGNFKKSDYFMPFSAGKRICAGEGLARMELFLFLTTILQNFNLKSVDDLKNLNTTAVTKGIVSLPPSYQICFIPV
# Rat PK (iv and po) = assay type: in vivo; details: for frac. abs.: estimated from %F, Cl and Qh = 70 mL min^–1 kg^–1; for bioavailability: in vivo, 4 mg/kg; for bioavailability / Cl / Vd: iv 1 mpk; for bioavailability / Cmax: po 4 mpk in 0.5% methylcellulose
# Source text: This was an early indication that the strategy of increasing potency while lowering lipophilicity would allow us to meet our goal of improving prospects for favorable PK and dose.
# Thermodynamic solubility = assay type: physicochemical
# [3] = system: A549 lung carcinoma cell line xenograft; experiment: Mouse xenograft model with A549 lung carcinoma cell line; assay type: in vivo
# Method: Based on the improved rat PK for 14c, it was dosed at 2 and 6 mpk along with lead 1 at 30 mpk—in an effort to achieve similar in vivo exposure profiles—in a mouse xenograft model with the lung carcinoma cell line A549 (Figure 4). […] The 6 mpk dose of 14c reduced the tumor volume by more than 50%. Regrowth was included to assess a possible growth lag period, but as expected, tumor regrowth resumed following mTOR inhibitor withdrawal.[22]
# All animal studies were conducted in accordance with Takeda California Institutional Animal Care and Use Committee guidelines in a facility accredited by the American Association for Accreditation of Laboratory Animal Care. Female Nu/Nu mice (Balb/c), approximately 28 days of age and weighing 20 to 23 grams were obtained from Harlan Laboratories. Immuno-compromised and/or inbred mice are used extensively for in vivo cancer research for detecting pharmacological capabilities induced by anti-cancer agents and therefore were chosen as the most appropriate animal model for this study. Five million A549 cells/animal (0.2 mL) w/ Matrigel were implanted S.C. into the right flank of Balb/c Nu/Nu mice.
# Low passage A549 cells were grown in F12 media and supplied at a concentration of 50 million cells/mL in DPBS. Treatment was initiated when all study animals had small tumors averaging approximately 150-180 mg. Dosing solutions/suspensions were prepared every 5 days. Compound 1 was suspended in 30% Captisol in 0.05 M MSA pH ~1.5. Compound 14c was suspended in 0.5% MC. Dose solutions/suspensions were given orally at a dose volume of 5 mL/kg. […] The general health of the mice was monitored, and mortality was assessed daily. Tumor dimensions were recorded 2 times per week starting one day before the first day of treatment. Toxicity was assessed as net body weight loss and lethality. Tumor weights are calculated using the equation (a x b2)/2, where a and b refer to the larger and smaller dimensions collected at each measurement. Error bars in each plot of % tumor volume change vs. days of treatment were calculated as the standard error of the means. […]
# [4] = pH 1.2, read-out: Thermodynamic solubility at pH 1.2
# [5] = pH 6.8, read-out: Thermodynamic solubility at pH 6.8
SMILES,IC50 [1],PI3Kα Sel (PI3Kα),"CLint scaled ([2]; human, liver microsomes, Figure 1 profile, read-out: HLM Clint)",IC50 (CYP2C8),frac. abs. (Rat PK (iv and po)),bioavailability (Rat PK (iv and po)),Cl (Rat PK (iv and po)),Vd (Rat PK (iv and po)),Cmax (Rat PK (iv and po)),solubility thermodynamic (Thermodynamic solubility; [4]),solubility thermodynamic (Thermodynamic solubility; [5]),Tumor growth ([3]; 30 mpk po QD 14 days),PI3Ka sel. (PI3Kα),"PI3Kα Sel (PI3Kα; Table 2, unit not given)","HLM Clint ([2]; apparent intrinsic clearance, scaled)",Tumor growth ([3]; 2 mpk po QD 14 days),Tumor volume reduction ([3]; 6 mpk po QD 14 days)
CC(F)(F)CN1C(=O)[C@]2(C)COCCN2c2nc(-c3ccc(NC(=O)NC4CC4)cc3)ncc21 [compound 1],0.049 µM,54 x,10 mL/min/kg,7 µM,22%,20%,6.9 mL min^–1 kg^–1,0.95 L/kg,320 nM,340 µM,0.6 µM,fully inhibited tumor growth,,,,,
C[C@@]12COCCN1c1nc(-c3cccc4[nH]ccc34)ncc1N([C@H]1CC[C@H](O)CC1)C2=O [14c],0.006 µM,,,21 µM,100%,94%,7.0 mL min^–1 kg^–1,1.3 L/kg,1600 nM,3960 µM,6 µM,,240 ×,240,6 mL min^–1 kg^–1,fully inhibited tumor growth,more than 50%
